Columns and labels:
Format in all cases: in vivo
[1] = system: barnyardgrass (Echinochloa crus-galli); assay: Test C preemergence, visual plant response rating; conditions: Test C, 0 is no effect, 100 is complete control
In short: (§1)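 Seeds sown in a loam–sand blend got a directed preemergence soil spray; postemergence plants (2–10 cm, one- to two-leaf stage) were sprayed with compound in a non-phytotoxic solvent plus surfactant. Injury was scored visually against untreated controls after about 10 d in a greenhouse on a 0–100 scale (100 = complete control).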

[2] = system: ragweed (common ragweed, Ambrosia artemisiifolia); assay: Test C preemergence, visual plant response rating; conditions: Test C, 0 is no effect, 100 is complete control
In short: as §1

[3] = system: foxtail, giant (giant foxtail, Setaria faberi); assay: Test C preemergence, visual plant response rating; conditions: Test C, 0 is no effect, 100 is complete control
In short: as §1

[4] = system: Italian ryegrass (Lolium mutiflorum); assay: Test C preemergence, visual plant response rating; conditions: Test C, 0 is no effect, 100 is complete control
In short: as §1

kochia (Bassia scoparia) [5] = assay: Test C preemergence, visual plant response rating; conditions: Test C, 0 is no effect, 100 is complete control
In short: as §1

[6] = system: pigweed (Amaranthus retroflexus); assay: Test C preemergence, visual plant response rating; conditions: Test C, 0 is no effect, 100 is complete control
In short: as §1

[7] = system: galium (catchweed bedstraw, Galium aparine); assay: Test C postemergence, visual plant response rating
In short: as §1

[8] = system: barnyardgrass (Echinochloa crus-galli); assay: Test C postemergence, visual plant response rating
In short: as §1

[9] = system: ragweed (common ragweed, Ambrosia artemisiifolia); assay: Test C postemergence, visual plant response rating
In short: as §1

[10] = system: wheat (Triticum aestivum); assay: Test C postemergence, visual plant response rating
In short: as §1

[11] = system: foxtail, giant (giant foxtail, Setaria faberi); assay: Test C postemergence, visual plant response rating
In short: as §1

[12] = system: blackgrass (Alopecurus myosuroides); assay: Test C postemergence, visual plant response rating
In short: as §1

[13] = system: Italian ryegrass (Lolium mutiflorum); assay: Test C postemergence, visual plant response rating
In short: as §1

corn (Zea mays) = assay: Test C postemergence, visual plant response rating
In short: as §1

kochia (Bassia scoparia) [14] = assay: Test C postemergence, visual plant response rating
In short: as §1

[15] = system: pigweed (Amaranthus retroflexus); assay: Test C postemergence, visual plant response rating
In short: as §1

[16] = system: duck salad (Heteranthera limosa); assay: Test D flooded paddy test, visual plant response rating; conditions: 250 g ai/ha, scale 0 to 100 (0 no effect, 100 complete control), 13 to 15 d
In short: (§2)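 Greenhouse paddy assay scored on a 0–100 visual scale after 13 to 15 d, where 100 means complete control and a dash marks no result; dosing was into 3 cm floodwater over 2-leaf plants.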

[17] = system: barnyardgrass (Echinochloa crus-galli); assay: as above; conditions: 250 g ai/ha, scale 0 to 100 (0 no effect, 100 complete control), 13 to 15 d
In short: as §2

[18] = system: sedge umbrella (small-flower umbrella sedge, Cyperus difformis); assay: as above; conditions: 250 g ai/ha, scale 0 to 100 (0 no effect, 100 complete control), 13 to 15 d
In short: as §2

rice (Oryza sativa) = assay: as above; conditions: 250 g ai/ha, scale 0 to 100 (0 no effect, 100 complete control), 13 to 15 d
In short: as §2

[19] = Test C, postemergence, 125 g ai/ha

SMILES	Barnyardgrass plant response rating (0 to 100 scale) ([1]; 31 g ai/ha)	Barnyardgrass plant response rating (0 to 100 scale) ([1]; 125 g ai/ha)	Ragweed plant response rating (0 to 100 scale) ([2]; 31 g ai/ha)	Ragweed plant response rating (0 to 100 scale) ([2]; 125 g ai/ha)	Foxtail, Giant plant response rating (0 to 100 scale) ([3]; 31 g ai/ha)	Foxtail, Giant plant response rating (0 to 100 scale) ([3]; 125 g ai/ha)	Ryegrass, Italian plant response rating (0 to 100 scale) ([4]; 31 g ai/ha)	Ryegrass, Italian plant response rating (0 to 100 scale) ([4]; 125 g ai/ha)	Kochia plant response rating (0 to 100 scale) (kochia (Bassia scoparia) [5]; 31 g ai/ha)	Kochia plant response rating (0 to 100 scale) (kochia (Bassia scoparia) [5]; 125 g ai/ha)	Pigweed plant response rating (0 to 100 scale) ([6]; 31 g ai/ha)	Pigweed plant response rating (0 to 100 scale) ([6]; 125 g ai/ha)	Galium plant response rating (0 to 100 scale) ([7]; Postemergence, 31 g ai/ha)	Galium plant response rating (0 to 100 scale) [7, 19]	Barnyardgrass plant response rating (0 to 100 scale) ([8]; Postemergence, 31 g ai/ha)	Barnyardgrass plant response rating (0 to 100 scale) [8, 19]	Ragweed plant response rating (0 to 100 scale) ([9]; Postemergence, 31 g ai/ha)	Ragweed plant response rating (0 to 100 scale) [9, 19]	Wheat plant response rating (0 to 100 scale) ([10]; Postemergence, 31 g ai/ha)	Wheat plant response rating (0 to 100 scale) [10, 19]	other results
Cc1nn(C)c(=O)c(C(=NOCC2CC2)c2cc(Cl)cc(Cl)c2Cl)c1O [Compound 293]	0	0	40	100	90	100	30	100	0	0	0	70	100	100	20	50	100	100	40	70	Foxtail, Giant plant response rating (0 to 100 scale) ([11]; Postemergence, 31 g ai/ha): 40; Foxtail, Giant plant response rating (0 to 100 scale) [11, 19]: 80; Blackgrass plant response rating (0 to 100 scale) ([12]; Postemergence, 31 g ai/ha): 0; Blackgrass plant response rating (0 to 100 scale) [12, 19]: 0; Ryegrass, Italian plant response rating (0 to 100 scale) ([13]; Postemergence, 31 g ai/ha): 100; Ryegrass, Italian plant response rating (0 to 100 scale) [13, 19]: 100; Corn plant response rating (0 to 100 scale) (corn (Zea mays); Postemergence, 31 g ai/ha): 0; Corn plant response rating (0 to 100 scale) (corn (Zea mays); [19]): 10; Kochia plant response rating (0 to 100 scale) (kochia (Bassia scoparia) [14]; Postemergence, 31 g ai/ha): 0; Kochia plant response rating (0 to 100 scale) (kochia (Bassia scoparia) [14]; [19]): 30; Pigweed plant response rating (0 to 100 scale) ([15]; Postemergence, 31 g ai/ha): 20; Pigweed plant response rating (0 to 100 scale) [15, 19]: 40; Plant response rating, Ducksalad (Flood) [16]: 0; Plant response rating, Barnyardgrass (Flood) [17]: 0; Plant response rating, Sedge, Umbrella (Flood) [18]: 0; Plant response rating, Rice (Flood) (rice (Oryza sativa)): 0
C=CCON=C(c1cc(Cl)cc(Cl)c1Cl)c1c(O)c(C)nn(C)c1=O [Compound 294]	70	100	70	100	70	100	60	100	0	50	20	80	80	100	20	60	80	100	0	60	Foxtail, Giant plant response rating (0 to 100 scale) ([11]; Postemergence, 31 g ai/ha): 40; Foxtail, Giant plant response rating (0 to 100 scale) [11, 19]: 60; Blackgrass plant response rating (0 to 100 scale) ([12]; Postemergence, 31 g ai/ha): 0; Blackgrass plant response rating (0 to 100 scale) [12, 19]: 0; Ryegrass, Italian plant response rating (0 to 100 scale) ([13]; Postemergence, 31 g ai/ha): 50; Ryegrass, Italian plant response rating (0 to 100 scale) [13, 19]: 100; Corn plant response rating (0 to 100 scale) (corn (Zea mays); Postemergence, 31 g ai/ha): 0; Corn plant response rating (0 to 100 scale) (corn (Zea mays); [19]): 10; Kochia plant response rating (0 to 100 scale) (kochia (Bassia scoparia) [14]; Postemergence, 31 g ai/ha): 20; Kochia plant response rating (0 to 100 scale) (kochia (Bassia scoparia) [14]; [19]): 30; Pigweed plant response rating (0 to 100 scale) ([15]; Postemergence, 31 g ai/ha): 20; Pigweed plant response rating (0 to 100 scale) [15, 19]: 20; Plant response rating, Ducksalad (Flood) [16]: 0; Plant response rating, Barnyardgrass (Flood) [17]: 0; Plant response rating, Sedge, Umbrella (Flood) [18]: 0; Plant response rating, Rice (Flood) (rice (Oryza sativa)): 0
Cc1nn(C)c(=O)c(C(=NOC(C)C)c2cc(Cl)cc(Cl)c2Cl)c1O [Compound 295]	0	0	90	100	100	100	80	100	0	70	80	100	100	100	50	70	100	100	30	100	Foxtail, Giant plant response rating (0 to 100 scale) ([11]; Postemergence, 31 g ai/ha): 70; Foxtail, Giant plant response rating (0 to 100 scale) [11, 19]: 90; Blackgrass plant response rating (0 to 100 scale) ([12]; Postemergence, 31 g ai/ha): 0; Blackgrass plant response rating (0 to 100 scale) [12, 19]: 0; Ryegrass, Italian plant response rating (0 to 100 scale) ([13]; Postemergence, 31 g ai/ha): 100; Ryegrass, Italian plant response rating (0 to 100 scale) [13, 19]: 100; Corn plant response rating (0 to 100 scale) (corn (Zea mays); Postemergence, 31 g ai/ha): 0; Corn plant response rating (0 to 100 scale) (corn (Zea mays); [19]): 30; Kochia plant response rating (0 to 100 scale) (kochia (Bassia scoparia) [14]; Postemergence, 31 g ai/ha): 0; Kochia plant response rating (0 to 100 scale) (kochia (Bassia scoparia) [14]; [19]): 50; Pigweed plant response rating (0 to 100 scale) ([15]; Postemergence, 31 g ai/ha): 60; Pigweed plant response rating (0 to 100 scale) [15, 19]: 90; Plant response rating, Ducksalad (Flood) [16]: 65; Plant response rating, Barnyardgrass (Flood) [17]: 60; Plant response rating, Sedge, Umbrella (Flood) [18]: 70; Plant response rating, Rice (Flood) (rice (Oryza sativa)): 60
C#CCON=C(c1cc(Cl)cc(Cl)c1Cl)c1c(O)c(C)nn(C)c1=O [Compound 296]	60	100	30	100	80	100	90	100	0	20	40	100	100	100	20	70	100	100	70	100	Foxtail, Giant plant response rating (0 to 100 scale) ([11]; Postemergence, 31 g ai/ha): 30; Foxtail, Giant plant response rating (0 to 100 scale) [11, 19]: 90; Blackgrass plant response rating (0 to 100 scale) ([12]; Postemergence, 31 g ai/ha): 0; Blackgrass plant response rating (0 to 100 scale) [12, 19]: 70; Ryegrass, Italian plant response rating (0 to 100 scale) ([13]; Postemergence, 31 g ai/ha): 80; Ryegrass, Italian plant response rating (0 to 100 scale) [13, 19]: 100; Corn plant response rating (0 to 100 scale) (corn (Zea mays); Postemergence, 31 g ai/ha): 0; Corn plant response rating (0 to 100 scale) (corn (Zea mays); [19]): 20; Kochia plant response rating (0 to 100 scale) (kochia (Bassia scoparia) [14]; Postemergence, 31 g ai/ha): 30; Kochia plant response rating (0 to 100 scale) (kochia (Bassia scoparia) [14]; [19]): 50; Pigweed plant response rating (0 to 100 scale) ([15]; Postemergence, 31 g ai/ha): 80; Pigweed plant response rating (0 to 100 scale) [15, 19]: 90; Plant response rating, Ducksalad (Flood) [16]: 0; Plant response rating, Barnyardgrass (Flood) [17]: 0; Plant response rating, Sedge, Umbrella (Flood) [18]: 0; Plant response rating, Rice (Flood) (rice (Oryza sativa)): 0

From US20210045385A1, “PYRIDAZINONE-SUBSTITUTED KETOXIMES AS HERBICIDES” (FMC Corporation, priority 2018, published 2021)
